Laboratory results taken from US5132323A, “1,2-diaminocyclohexane-platinum complexes with antitumor activity” (Board of Regents, The University of Texas System, priority 1990, dated 1992).

How the values were obtained:
[1] = system: wild-type L1210 leukemic cells; assay: In vitro cytotoxicity, growth inhibition of wild-type L1210 leukemic cells; type: cell-based, murine; conditions: 72 hours incubation
Experimental: Wild-type L1210 leukemic cells were grown as a suspension culture in McCoy's 5A medium supplemented with 10% horse serum, glutamine, streptomycin and penicillin at 37° C., 95% relative humidity and 5% CO2. Four ml of cell suspension (10^5 cells/ml) were added to culture tubes and the appropriate amount of drug was added (to yield 0.01, 0.1, 1 or 10 μg/ml final concentration) to the culture tubes. After 72 hours of incubation, the cell concentration in control and experimental cultures were determined with the aid of the Coulter counter model ZBf and the percent of growth inhibition calculated.

L1210 = assay: In vivo antitumor therapy against L1210; parameters: species or system BDF1 mice; conditions: for Long-term Survivors: alive 30 days after tumor inoculation
B16 melanoma = assay: In vivo antitumor efficacy, B16 melanoma; parameters: species or system BDF1 mice; conditions: for % T/C (mean survival time treated/control x 100): mice inoculated with B16 cells (Table 6); for % T/C: days 1, 5, 9
Experimental: (§1) BDF1 mice were inoculated intraperitoneally with 10^5 L121O cells, 0.5 ml of 10% tumor brei or 10^6 M5076 cells using 5 animals in each group. Drug was administered […] on days 1, 5 and 9, except that the group infected with M5076 cells was also injected on day 13. % T/C represents mean survival time treated/mean survival time of the control times 100.
(§2) ^d % T/C = (Mean Survival Time treated/Mean Survival Time control)
(§3) ^e LTS animals alive 60 days after inoculation of L1210/0 and B16 and […]

[2] = LD50 of DACH-Pt(II) compounds, intraperitoneal; type: in vivo; conditions: i.p., CD1 albino mice
M5076 = assay: In vivo antitumor efficacy, M5076; parameters: species or system BDF1 mice; conditions: for long term survivor: M5076 inoculation (Table 6); for % T/C (treated/control mean survival time): mice inoculated with M5076 cells (Table 6); for % T/C: days 1, 5, 9, 13; for LTS: alive 90 days after inoculation
Experimental: as §1
^c BDF1 mice were inoculated i.p. with 10^6 M5076 cells. Mic
received 4 i.p. drug injections on days 1, 5, 9 and 13.
as §2
^e LTS animals alive 60 days after inoculation of L1210/0 and B16 and
90 days after inoculation B5076.

[3] = In vivo renal and hematological toxicity of DACH-Pt(II) compounds; parameters: species or system CD1 albino mice; WBC d.5: unit not given here; conditions: single i.p. LD50 dose; for Body Weight d.5 (% of day 0) / WBC d.5: day 5; for WBC d.5: mean ± S.D.
Experimental: CD1 albino mice were administered a single intraperitoneal injection of the LD50 dose of each compound using 5 mice in each group. Five days later each mouse was bled under anesthesia from the axillary vessel. Blood urea nitrogen (BUN) and leucopenia were assessed for each sample.
^a CD1 Albino mice were administered a single i.p. injection of
the LD50 dose of each compound (5 mice/cmpd) and bled under
anesthesia from the axillary vessel 5 days later for blood urea nitrogen
(BUN) measurement and assessment of leucopenia. Results as presented as […]

L1210/cisplatin = assay: In vivo antitumor efficacy, L1210/cisplatin; parameters: species or system BDF1 mice; conditions: for % T/C (mean survival time treated/control × 100): mice inoculated with L1210 cells (Table 6); for % T/C: days 1, 5, 9
Experimental: as §1
^a BDF1 mice were inoculated i.p. with 10^5 L1210 cells. Mic
received 3 i.p. drug injections days 1, 5, and 9.
as §2, §3

[4] = optimal dose 12.5 mg/kg i.p., days 1-9
[5] = optimal dose 12.5 mg/kg i.p., days 1,5,9
[6] = optimal dose 50 mg/kg i.p., day 1
[7] = optimal dose 25 mg/kg i.p., days 1,5,9
[8] = optimal dose 6.25 mg/kg i.p., days 1,5,9

1,1-Cyclobutanedicarboxylato(cis-DACH)Pt(II).11/2H2 O [Compound 13]
ID50 [1]: 3.30 µg/mL | Long-term Survivors (L1210; 12.5 mg/kg i.p., days 1-9): 1/6 | % T/C (L1210; [4]): 253% | long term survivor (B16 melanoma; B16 inoculation (Table 6)): 1/5 | % T/C (mean survival time treated/control x 100) (B16 melanoma): 200% | % T/C (B16 melanoma; opt. dose 100 mg/kg i.p.): 200% | LTS (B16 melanoma; opt. dose 100 mg/kg i.p., alive 60 days after inoculation): 1/5 | LD50 [2]: 215 mg/kg | long term survivor (M5076): 5/5 | % T/C (treated/control mean survival time) (M5076): 400% | % T/C (M5076; opt. dose 100 mg/kg i.p.): 400% | LTS (M5076; opt. dose 100 mg/kg i.p.): 5/5 | Survivors on d.5 [3]: 5/5 | Body Weight d.5 (% of day 0) [3]: 82 % of day 0 | WBC d.5 [3]: 1.13 ± 0.28 | % T/C (mean survival time treated/control × 100) (L1210/cisplatin): 150% | % T/C (L1210/cisplatin; opt. dose 150 mg/kg i.p.): 150%

1,1-Cyclobutanedicarboxylato(trans-R,R-DACH)Pt(II).1 1/2H2 O [Compound 11]
Long-term Survivors (L1210; 6.25 mg/kg i.p., days 1-9): 3/6 | % T/C (L1210; optimal dose 6.25 mg/kg i.p., days 1-9): 398% | % T/C (L1210; [5]): 140% | % T/C (L1210; [6]): 147% | % T/C (mean survival time treated/control x 100) (B16 melanoma): 104% | % T/C (B16 melanoma; opt. dose 50 mg/kg i.p.): 104% | LD50 [2]: 280 mg/kg | long term survivor (M5076): one | % T/C (treated/control mean survival time) (M5076): 220% | % T/C (M5076; opt. dose 50 mg/kg i.p.): 220% | LTS (M5076; opt. dose 50 mg/kg i.p.): 1/5 | Survivors on d.5 [3]: 5/5 | Body Weight d.5 (% of day 0) [3]: 121 % of day 0 | WBC d.5 [3]: 3.44 ± 1.55 | % T/C (mean survival time treated/control × 100) (L1210/cisplatin): 118% | % T/C (L1210/cisplatin; opt. dose 150 mg/kg i.p.): 118%

CCN(CC(=O)[O-])CC(=O)[O-].N[C@@H]1CCCC[C@H]1N.O.[Pt+2] (stereo in doubt) [Compound 1, N-ethyliminodiacetato(trans-R,R-DACH)Pt(II).H2 O]
ID50 [1]: 0.73 µg/mL | Long-term Survivors (L1210; 3.15 mg/kg i.p., days 1-9): 4/6 | Long-term Survivors (L1210; 12.5 mg/kg i.p., days 1,5,9): 1/6 | % T/C (L1210; optimal dose 3.15 mg/kg i.p., days 1-9): 434% | % T/C (L1210; [5]): 324% | % T/C (L1210; [6]): 125% | LD50 [2]: 58 mg/kg | Survivors on d.5 [3]: 5/5 | Body Weight d.5 (% of day 0) [3]: 105 % of day 0 | WBC d.5 [3]: 2.3 ± 0.93 | % T/C (mean survival time treated/control × 100) (L1210/cisplatin): 324% | % T/C (L1210/cisplatin; opt. dose 12.5 mg/kg i.p.): 324%

N[C@@H]1CCCC[C@H]1N.O.O.O=C([O-])CN(O)CC(=O)[O-].[Pt+2] (stereo in doubt) [Compound 9, N-hydroxyliminodiacetato(trans-R,R-DACH)Pt(II).2H2 O]
ID50 [1]: 0.76 µg/mL | % T/C (L1210; [7]): 265% | % T/C (L1210; [6]): 156%

N[C@H]1CCCC[C@@H]1N.O.O.O=C([O-])C1(C(=O)[O-])CCC1.[Pt+2] (stereo in doubt) [Compound 12, 1,1-Cyclobutanedicarboxylato(trans-S,S-DACH)Pt(II).2H2 O]
ID50 [1]: 1.65 µg/mL | % T/C (L1210; [4]): 120% | % T/C (mean survival time treated/control x 100) (B16 melanoma): 104% | % T/C (B16 melanoma; opt. dose 50 mg/kg i.p.): 104% | LD50 [2]: 230 mg/kg | % T/C (treated/control mean survival time) (M5076): 231% | % T/C (M5076; opt. dose 50 mg/kg i.p.): 231% | LTS (M5076; opt. dose 50 mg/kg i.p.): 1/5 | Survivors on d.5 [3]: 3/5 | Body Weight d.5 (% of day 0) [3]: 114 % of day 0 | WBC d.5 [3]: 3.42 ± 1.93 | % T/C (mean survival time treated/control × 100) (L1210/cisplatin): 176% | % T/C (L1210/cisplatin; opt. dose 100 mg/kg i.p.): 176%

N[C@@H]1CCCC[C@H]1N.O.O=C([O-])C1(C(=O)[O-])CC1.[Pt+2] (stereo in doubt) [Compound 14, 1,l-Cyclopropanedicarboxylato(trans-R,R-DACH)Pt(II).H2 O]
ID50 [1]: 0.66 µg/mL

CN(C)CC(=O)[O-].CN(C)CC(=O)[O-].N[C@@H]1CCCC[C@H]1N.O.O.[Pt+2] (stereo in doubt) [Compound 16, Cis-bis-N,N-dimethylglycinato(trans-R,R-DACH)Pt(II).2H2 O]
ID50 [1]: 3.5 µg/mL

N.N.O=C([O-])C1(C(=O)[O-])CCC1.[Pt+2] [Carboplatin, reference compound]
LD50 [2]: 105 mg/kg | % T/C (M5076; opt. dose 40 mg/kg i.p.): 150% | Survivors on d.5 [3]: 5/5 | Body Weight d.5 (% of day 0) [3]: 95 % of day 0 | % T/C (L1210/cisplatin; opt. dose 90 mg/kg i.p.): 121%

CCN1CC(=O)[O][Pt]2([NH]C3CCCCC3[NH]2)[O]C(=O)C1 (stereo not drawn) [Cis-EIDA]
LD50 [2]: 140 mg/kg | Survivors on d.5 [3]: 3/5 | Body Weight d.5 (% of day 0) [3]: 77 % of day 0 | WBC d.5 [3]: 3.25 ± 1.01 | % T/C (L1210/cisplatin; opt. dose 75 mg/kg i.p.): 262%

N.N.[Cl][Pt][Cl] [Cisplatin, reference compound]
% T/C (B16 melanoma; opt. dose 3 mg/kg i.p.): 139% | % T/C (M5076; opt. dose 3 mg/kg i.p.): 200% | % T/C (L1210/cisplatin; opt. dose 5 mg/kg i.p.): 94%

CCCN(CC(=O)[O-])CC(=O)[O-].N[C@@H]1CCCC[C@H]1N.O.O.[Pt+2] [Compound 2, N-propyliminodiacetato(trans-R,R-DACH)Pt(II).2H2 O]
ID50 [1]: 0.75 µg/mL | % T/C (L1210; optimal dose 56 mg/kg i.p., day 1): 129%

CCCCN(CC(=O)[O-])CC(=O)[O-].N[C@@H]1CCCC[C@H]1N.O.O.[Pt+2] [Compound 3, N-butyliminodiacetato(trans-R,R-DACH)Pt(II).2H2 O]
ID50 [1]: 0.74 µg/mL | Long-term Survivors (L1210; 12.5 mg/kg i.p., days 1,5,9): 2/6 | % T/C (L1210; optimal dose 12.5 mg/kg i.p., day 1): 147% | % T/C (L1210; [5]): 318%

CCCCCN(CC(=O)[O-])CC(=O)[O-].N[C@@H]1CCCC[C@H]1N.O.[Pt+2] [Compound 4, N-amyliminodiacetato(trans-R,R-DACH)Pt(II).H2 O]
ID50 [1]: 3.00 µg/mL | Long-term Survivors (L1210; 25 mg/kg i.p., days 1,5,9): 2/6 | % T/C (L1210; [7]): 227% | % T/C (L1210; [6]): 158%

CC(C)CCN(CC(=O)[O-])CC(=O)[O-].N[C@@H]1CCCC[C@H]1N.[Pt+2] [Compound 6, N-isoamyliminodiacetato(trans-R,R-DACH)Pt(II)]
% T/C (L1210; [5]): 150% | % T/C (L1210; [6]): 145%

CCC(C)N(CC(=O)[O-])CC(=O)[O-].N[C@@H]1CCCC[C@H]1N.O.O.[Pt+2] (stereo not drawn) [Compound 7, N-sec-butyliminodiacetato(trans-R,R-DACH)Pt(II).2H2 O]
ID50 [1]: 0.65 µg/mL | Long-term Survivors (L1210; 6.25 mg/kg i.p., days 1,5,9): 2/6 | % T/C (L1210; [8]): 282%

CC(C)(C)N(CC(=O)[O-])CC(=O)[O-].N[C@@H]1CCCC[C@H]1N.O.O.O.[Pt+2] [Compound 8, N-ter-butyliminodiacetato(trans-R,R-DACH)Pt(II).3H2 O]
Long-term Survivors (L1210; 6.25 mg/kg i.p., days 1,5,9): 1/6 | % T/C (L1210; [8]): 271%

CC(=CC(=O)[O-])C(=O)[O-].NC1CCCCC1N.O.[Pt+2] [Compound 10, Citraconato(trans-R,R-DACH)Pt(II).1H2 O]
ID50 [1]: 5.00 µg/mL | % T/C (L1210; [7]): 200%

CCN1CC(=O)[O][Pt]2([NH]C3CCCCC3[NH]2)[O]C(=O)C1 (stereo not shown) [S,S-EIDA]
LD50 [2]: 95 mg/kg | Survivors on d.5 [3]: 5/5 | Body Weight d.5 (% of day 0) [3]: 100 % of day 0 | WBC d.5 [3]: 2.63 ± 0.96 | % T/C (L1210/cisplatin; opt. dose 25 mg/kg i.p.): 344%

Cis-bis-galacturonato(trans-R,R-DACH)Pt(II).2H2 O [Compound 15]
ID50 [1]: 0.90 µg/mL | % T/C (L1210; [5]): 238%

N-isopropyliminodiacetato(trans-R,R-DACH)Pt(II).2H2 O [Compound 5]
ID50 [1]: 0.85 µg/mL | Long-term Survivors (L1210; 12.5 mg/kg i.p., days 1,5,9): 1/6 | % T/C (L1210; [5]): 324% | % T/C (L1210; [6]): 155%
